The values that follow come from ChEMBL document CHEMBL4184156, “Repurposing Hsp90 inhibitors as antibiotics targeting histidine kinases” (Bioorg Med Chem Lett, 2017).

≈ marks a conversion by molar mass, not a printed value.

Data set [1] deals with Staphylococcus epidermidis. Description: Antimicrobial activity against Staphylococcus epidermidis ATCC 35984 after 10 hrs. The conditions noted are these: ATCC 35984, 10 h. Type of data set: functional.
Data set [2] deals with T1, Virulence sensor histidine kinase PhoQ (Salmonella typhimurium (strain LT2 / SGSC1412 / ATCC 700720)) (UniProt P0DM80).
T1 sequence (whole entry): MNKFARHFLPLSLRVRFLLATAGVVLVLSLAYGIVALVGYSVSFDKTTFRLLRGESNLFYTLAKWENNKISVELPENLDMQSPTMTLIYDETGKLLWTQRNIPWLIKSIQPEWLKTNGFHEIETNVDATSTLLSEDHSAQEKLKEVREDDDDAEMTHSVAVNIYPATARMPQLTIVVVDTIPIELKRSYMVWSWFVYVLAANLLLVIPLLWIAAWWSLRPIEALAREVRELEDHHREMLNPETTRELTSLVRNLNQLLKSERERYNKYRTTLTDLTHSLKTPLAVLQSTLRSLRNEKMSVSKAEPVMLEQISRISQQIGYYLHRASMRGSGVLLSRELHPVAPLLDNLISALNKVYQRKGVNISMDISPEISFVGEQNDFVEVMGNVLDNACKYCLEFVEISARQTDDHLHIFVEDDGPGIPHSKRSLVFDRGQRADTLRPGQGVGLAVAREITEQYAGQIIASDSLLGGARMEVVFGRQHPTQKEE
As to the kind of experiment: Inhibition of recombinant Salmonella typhimurium N-terminal His6-SUMO-tagged DHp-catalytic domain PhoQ (257 to 487 residues) autophosphorylation expressed in Escherichia coli BL21(DE3) at 500 uM preincubated for 10 mins followed by [gamma-32P]-ATP addition after 30 mins by phosphotransferase dot blot assay relative to control. Details: scale not given: the % may be the effect or the level left. The conditions noted are these: Salmonella enterica subsp. enterica serovar Typhimurium.

Data set [3] deals with T2, Cell cycle histidine kinase CckA (Caulobacter vibrioides) (UniProt Q9X688).
T2 sequence (whole entry): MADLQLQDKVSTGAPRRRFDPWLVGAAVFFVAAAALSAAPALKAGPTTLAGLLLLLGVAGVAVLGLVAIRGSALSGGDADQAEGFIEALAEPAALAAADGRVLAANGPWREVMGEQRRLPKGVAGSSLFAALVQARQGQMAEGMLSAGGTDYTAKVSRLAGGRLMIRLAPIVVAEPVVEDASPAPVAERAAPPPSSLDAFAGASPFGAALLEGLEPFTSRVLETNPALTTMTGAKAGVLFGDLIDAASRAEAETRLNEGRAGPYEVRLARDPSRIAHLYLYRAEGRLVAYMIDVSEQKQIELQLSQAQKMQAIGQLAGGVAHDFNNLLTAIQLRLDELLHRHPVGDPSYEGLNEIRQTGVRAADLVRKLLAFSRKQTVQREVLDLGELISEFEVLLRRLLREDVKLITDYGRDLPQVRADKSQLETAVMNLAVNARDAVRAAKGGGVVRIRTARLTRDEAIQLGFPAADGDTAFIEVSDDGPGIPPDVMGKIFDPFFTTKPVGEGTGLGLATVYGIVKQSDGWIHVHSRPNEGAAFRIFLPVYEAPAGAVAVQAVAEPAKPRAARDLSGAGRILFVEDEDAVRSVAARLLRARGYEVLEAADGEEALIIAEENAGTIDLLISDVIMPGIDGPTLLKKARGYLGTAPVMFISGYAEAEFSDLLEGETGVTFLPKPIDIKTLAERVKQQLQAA
Description: Binding affinity to recombinant Caulobacter vibrioides cell cycle histidine kinase CckA delta 3 mutant DHp domain (190 to 562 residues) expressed in Escherichia coli assessed as change in metlting temperature at 30 uM after 2 mins by SYPRO orange dye based DSF assay. (In DSF a fluorescence change marks the thermal transition of the protein.)

Data set [4] is described as follows: Inhibition of recombinant full length yeast N-terminal His-tagged Hsp90 expressed in Escherichia coli BL21 incubated overnight in presence of ATP by malachite green dye based assay. Details: species or system Saccharomyces cerevisiae.
Data set [5] relates to Caulobacter vibrioides. Description: Antibacterial activity against Caulobacter crescentus NA1000 after 24 hrs by broth dilution method. The settings on record: NA1000, 24 h. Type of data set: functional.
The nature of data set [6]: Hemolytic activity against sheep RBC at 0.5 mM after 30 mins relative to control. The conditions noted are these: sheep red blood cells (erythrocytes), read-out: Activity. Type of data set: ADME, cell-based, Ovis aries, Erythrocyte.
Data set [7] addresses T3, Histidine protein kinase DivJ (Caulobacter vibrioides (strain ATCC 19089 / CB15) (Caulobactercrescentus)) (UniProt Q03228).
T3 sequence (whole entry): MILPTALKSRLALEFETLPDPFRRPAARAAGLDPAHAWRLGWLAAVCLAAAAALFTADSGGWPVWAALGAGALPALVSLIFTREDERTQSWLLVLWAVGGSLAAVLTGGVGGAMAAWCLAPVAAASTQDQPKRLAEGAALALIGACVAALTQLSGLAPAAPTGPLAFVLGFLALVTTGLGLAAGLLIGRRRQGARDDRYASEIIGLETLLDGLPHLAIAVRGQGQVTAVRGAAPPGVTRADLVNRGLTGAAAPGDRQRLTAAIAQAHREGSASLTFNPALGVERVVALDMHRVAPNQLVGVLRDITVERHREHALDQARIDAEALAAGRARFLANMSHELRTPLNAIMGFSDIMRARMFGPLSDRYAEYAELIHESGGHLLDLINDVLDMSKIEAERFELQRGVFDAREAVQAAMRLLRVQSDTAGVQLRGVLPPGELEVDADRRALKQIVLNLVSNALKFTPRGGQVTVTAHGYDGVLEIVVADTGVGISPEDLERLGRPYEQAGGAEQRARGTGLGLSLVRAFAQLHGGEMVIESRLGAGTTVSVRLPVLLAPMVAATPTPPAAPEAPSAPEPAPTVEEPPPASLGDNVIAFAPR
As to the kind of experiment: Inhibition of recombinant Caulobacter vibrioides N-terminal His6-tagged DHp-catalytic domain DivJ (188 to 585 residues) autophosphorylation expressed in Escherichia coli BL21(DE3) at 500 uM preincubated for 10 mins followed by [gamma-32P]-ATP addition after 15 mins by phosphotransferase dot blot assay relative to control. The arrangement: scale not given: the % may be the effect or the level left.

For data set [8], the target named is Cell cycle histidine kinase CckA (Caulobacter vibrioides, UniProt Q9X688). Description: Inhibition of recombinant Caulobacter vibrioides cell cycle histidine kinase CckA deltaTM mutant DHp domain (70 to 691 residues) expressed in Escherichia coli in presence of varying levels of ATP measured every 60 secs for 2 hrs by PK/LDH enzyme coupled assay.
For data set [9], the system named is Escherichia coli. Description: Antibacterial activity against Escherichia coli DC2 after 24 hrs by broth dilution method. Type of data set: functional. The conditions noted are these: DC2, 24 h.
Data set [10] has as its system Bacillus subtilis. Description: Antibacterial activity against Bacillus subtilis YB886 after 24 hrs by broth dilution method. The data set is classed as functional. The conditions noted are these: YB886, 24 h. In general terms: Dilution methods test growth across graded concentrations, often in twofold steps.
In data set [11] the target is T4, Virulence sensor histidine kinase PhoQ (Salmonella typhimurium (strain LT2 / SGSC1412 / ATCC 700720), UniProt P0DM80).
T4 sequence (P0DM80 whole entry): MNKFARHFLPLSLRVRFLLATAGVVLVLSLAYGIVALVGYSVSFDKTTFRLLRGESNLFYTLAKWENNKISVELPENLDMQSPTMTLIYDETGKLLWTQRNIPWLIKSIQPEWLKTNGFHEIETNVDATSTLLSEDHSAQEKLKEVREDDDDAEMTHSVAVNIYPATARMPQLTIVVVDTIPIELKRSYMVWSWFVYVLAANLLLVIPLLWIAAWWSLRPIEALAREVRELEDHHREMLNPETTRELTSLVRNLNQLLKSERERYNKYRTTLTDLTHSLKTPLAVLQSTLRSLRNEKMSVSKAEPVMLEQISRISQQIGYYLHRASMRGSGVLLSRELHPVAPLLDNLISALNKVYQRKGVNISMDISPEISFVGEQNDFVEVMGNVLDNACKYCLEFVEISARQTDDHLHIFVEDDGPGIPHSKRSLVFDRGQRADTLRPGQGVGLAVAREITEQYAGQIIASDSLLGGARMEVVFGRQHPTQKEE
Description: Displacement of TNP-ATP from recombinant Salmonella typhimurium GST-tagged DHp-catalytic domain PhoQ (332 to 487 residues) expressed in Escherichia coli XA90 aafter 10 mins by fluorescence assay. Details: species or system Salmonella enterica subsp. enterica serovar Typhimurium.

Compound in data set [12]: COc1ccc(-c2c(C)n[nH]c2-c2cc(Cl)c(O)cc2O)cc1
As to the kind of experiment: Competitive inhibition of Caulobacter vibrioides full length wild type Cell cycle histidine kinase CckA deltaTM expressed in Escherichia coli BL21-AI assessed as enzyme Km in presence of varying levels of ATP measured every 60 secs for 2 hrs by Lineweaver-Burk plot analysis.

With `O=C(O)c1ccc(-c2ccc(/C=C3\S/C(=N\c4ccccc4)N(c4ccc(F)cc4)C3=O)s2)cc1`, the MIC in data set [1] is 0.75 µg/mL (≈ 1.5 µM).

With `C[C@@H]1C[C@H]2O[C@@H]2/C=C\C=C\C(=O)Cc2c(Cl)c(O)cc(O)c2C(=O)O1` [RADICICOL], the Activity in [2] was determined as 86%; in data set [7], 123%. The ΔTm in data set [3] is 0.9 °C. Besides, the IC50 in [4] was found to be 0.26 µM; in data set [8], 184 µM. For the same molecule, the MIC in data set [5], in data set [9] and in data set [10] was over 300 µM in each case. The hemolysis at 0.5 h, 500 µM in [6] was determined as 0%.

In the case of `CC(C)=CCc1c(O)cc2occ(Cl)c(=O)c2c1O`, the dissociation constant (Kd) in data set [11] turned out to be 391 µM.

B1: Cell cycle histidine kinase CckA (Caulobacter vibrioides), Q9X688 (protein)
chain: MADLQLQDKVSTGAPRRRFDPWLVGAAVFFVAAAALSAAPALKAGPTTLAGLLLLLGVAGVAVLGLVAIRGSALSGGDADQAEGFIEALAEPAALAAADGRVLAANGPWREVMGEQRRLPKGVAGSSLFAALVQARQGQMAEGMLSAGGTDYTAKVSRLAGGRLMIRLAPIVVAEPVVEDASPAPVAERAAPPPSSLDAFAGASPFGAALLEGLEPFTSRVLETNPALTTMTGAKAGVLFGDLIDAASRAEAETRLNEGRAGPYEVRLARDPSRIAHLYLYRAEGRLVAYMIDVSEQKQIELQLSQAQKMQAIGQLAGGVAHDFNNLLTAIQLRLDELLHRHPVGDPSYEGLNEIRQTGVRAADLVRKLLAFSRKQTVQREVLDLGELISEFEVLLRRLLREDVKLITDYGRDLPQVRADKSQLETAVMNLAVNARDAVRAAKGGGVVRIRTARLTRDEAIQLGFPAADGDTAFIEVSDDGPGIPPDVMGKIFDPFFTTKPVGEGTGLGLATVYGIVKQSDGWIHVHSRPNEGAAFRIFLPVYEAPAGAVAVQAVAEPAKPRAARDLSGAGRILFVEDEDAVRSVAARLLRARGYEVLEAADGEEALIIAEENAGTIDLLISDVIMPGIDGPTLLKKARGYLGTAPVMFISGYAEAEFSDLLEGETGVTFLPKPIDIKTLAERVKQQLQAA
Consider B1, for which, in data set [12], the Km is 17.9 µM.

Usually MIC stands for the smallest concentration in the dilution series that meets the test's criterion for growth inhibition. The ΔTm is the change in melting temperature against a reference sample. In general, IC50 refers to the concentration needed to halve the response being measured. In general, Kd refers to the equilibrium constant for the complex coming apart. The Km is the concentration of substrate that gives half-maximal velocity.
